The structures appear in SMILES notation. Calls of active or inactive are those of the source.

Test [1] concerns the target Serine/threonine-protein phosphatase (Homo sapiens, UniProt Q9BPW0). Kind of test: PP5 phosphatase inhibitors, dose response, biochemical, fluorescence (AID 2395).
The next test has as its target SUMO-activating enzyme (Homo sapiens, UniProt Q9UBT2). Put plainly: inhibitors of in vitro SUMOylation cascade, primary screen, biochemical, HTRF, uHTS (AID 2006). The format is protein-complex assay.
In a further test the target is T1, Caspase-3 (Homo sapiens, UniProt P42574).
T1 sequence (P42574 whole entry): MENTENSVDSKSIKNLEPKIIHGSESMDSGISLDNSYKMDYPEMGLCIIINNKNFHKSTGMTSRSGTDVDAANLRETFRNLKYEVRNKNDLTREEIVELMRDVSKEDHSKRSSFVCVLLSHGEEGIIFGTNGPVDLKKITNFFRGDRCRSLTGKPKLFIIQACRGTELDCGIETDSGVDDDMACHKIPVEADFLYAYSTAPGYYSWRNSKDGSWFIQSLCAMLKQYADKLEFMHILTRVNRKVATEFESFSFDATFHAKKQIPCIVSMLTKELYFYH
Put plainly: caspase-3 enzyme inhibitors, selectivity check, dose response, selectivity assay for caspase-6 allosteric inhibitor project, biochemical, fluorescence, cherry-picked samples (AID 743291).

The nature of test [2]: Luminescence Cell-Based Dose Confirmation HTS to Identify Inhibitors of Platelet Dense Granule Release. [Related pubchem assays: 1663 (Primary HTS), 1678 (Summary of Project)]. The format is functional.
Another test has as its target T2, Insulin-degrading enzyme (Homo sapiens, UniProt P14735).
T2 sequence (P14735 whole entry): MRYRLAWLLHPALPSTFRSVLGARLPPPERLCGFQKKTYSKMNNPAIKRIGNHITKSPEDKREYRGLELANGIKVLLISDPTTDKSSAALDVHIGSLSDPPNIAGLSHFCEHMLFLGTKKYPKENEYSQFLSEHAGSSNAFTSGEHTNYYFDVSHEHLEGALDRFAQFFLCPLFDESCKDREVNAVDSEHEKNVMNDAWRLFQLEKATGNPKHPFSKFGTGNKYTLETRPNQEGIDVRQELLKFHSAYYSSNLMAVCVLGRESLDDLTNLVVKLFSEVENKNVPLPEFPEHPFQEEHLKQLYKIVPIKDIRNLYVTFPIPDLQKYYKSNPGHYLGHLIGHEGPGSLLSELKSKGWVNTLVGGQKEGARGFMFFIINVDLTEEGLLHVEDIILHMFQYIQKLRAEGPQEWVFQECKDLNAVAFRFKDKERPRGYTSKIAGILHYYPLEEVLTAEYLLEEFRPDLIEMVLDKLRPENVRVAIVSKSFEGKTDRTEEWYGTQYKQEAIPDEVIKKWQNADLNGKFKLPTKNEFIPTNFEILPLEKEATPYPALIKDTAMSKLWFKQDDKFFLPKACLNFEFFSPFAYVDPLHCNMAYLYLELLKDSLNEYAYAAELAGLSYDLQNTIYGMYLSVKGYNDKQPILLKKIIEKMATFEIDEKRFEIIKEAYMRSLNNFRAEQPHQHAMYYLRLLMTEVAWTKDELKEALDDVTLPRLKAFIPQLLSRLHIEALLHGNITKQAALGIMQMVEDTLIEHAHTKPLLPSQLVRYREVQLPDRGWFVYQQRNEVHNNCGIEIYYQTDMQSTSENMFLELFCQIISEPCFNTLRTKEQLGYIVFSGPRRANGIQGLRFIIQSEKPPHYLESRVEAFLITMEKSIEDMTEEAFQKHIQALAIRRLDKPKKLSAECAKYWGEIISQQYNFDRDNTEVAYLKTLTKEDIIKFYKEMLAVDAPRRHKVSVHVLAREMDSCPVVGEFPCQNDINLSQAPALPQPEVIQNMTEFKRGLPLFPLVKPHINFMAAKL
Kind of test: activators of endogenous IDE in HEK cells, dose response, cell-based, fluorescence polarization (AID 588439). The format is functional.

The nature of test [3]: C. albicans growth with fluconazole, confirmation, fluorescence, retest (AID 2467). The format is functional, cell-based.
The target of test [4] is Serine/threonine-protein kinase PAK 4 (Homo sapiens, UniProt O96013). The format is functional.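 Note: value obtained within a kinome profiling panel in which PAK4 was one of the panel members.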
In test [5] the target is Death-associated protein kinase 3 (Homo sapiens, UniProt O43293). The format is functional.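 Note: measured as one member of a kinome-wide profiling panel.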
Chain of Death-associated protein kinase 3 (O43293 whole entry): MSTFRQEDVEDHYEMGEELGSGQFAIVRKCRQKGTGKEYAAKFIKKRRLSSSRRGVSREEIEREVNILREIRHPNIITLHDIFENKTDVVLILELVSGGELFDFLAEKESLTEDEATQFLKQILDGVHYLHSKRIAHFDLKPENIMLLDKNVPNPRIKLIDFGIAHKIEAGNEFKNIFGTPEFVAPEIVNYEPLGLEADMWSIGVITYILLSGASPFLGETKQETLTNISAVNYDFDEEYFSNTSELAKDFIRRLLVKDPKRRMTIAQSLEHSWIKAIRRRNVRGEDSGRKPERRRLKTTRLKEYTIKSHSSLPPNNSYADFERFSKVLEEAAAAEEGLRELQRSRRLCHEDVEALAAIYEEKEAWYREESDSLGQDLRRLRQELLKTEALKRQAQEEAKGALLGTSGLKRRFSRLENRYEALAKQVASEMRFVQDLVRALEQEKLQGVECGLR
Test [6] has as its target Mitogen-activated protein kinase kinase kinase 20 (Homo sapiens, UniProt Q9NYL2). The format is functional.
The target of test [7] is Ribosomal protein S6 kinase alpha-3 (Homo sapiens, UniProt P51812). The format is functional.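 Note: measured within a kinome-wide profiling panel.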
For test [8], the target named is cGMP-dependent protein kinase 1 (Homo sapiens, UniProt Q13976). The format is functional.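 Note: value from a kinome panel screen with PRKG1 as the panel member.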
The target of test [9] is Cyclin-dependent kinase 1 (Homo sapiens, UniProt P06493). The format is functional.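 Note: Kinome-wide panel profiling, with the target listed as panel member CDC2.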
Chain of Cyclin-dependent kinase 1 (P06493 whole entry): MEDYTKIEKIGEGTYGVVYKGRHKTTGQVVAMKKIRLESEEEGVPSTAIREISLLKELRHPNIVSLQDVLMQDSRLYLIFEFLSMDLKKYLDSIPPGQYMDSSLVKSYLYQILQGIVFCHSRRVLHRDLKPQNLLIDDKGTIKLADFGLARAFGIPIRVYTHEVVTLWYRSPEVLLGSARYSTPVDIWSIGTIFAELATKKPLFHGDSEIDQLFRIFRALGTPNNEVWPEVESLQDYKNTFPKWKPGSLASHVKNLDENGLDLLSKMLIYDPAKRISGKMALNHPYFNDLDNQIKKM
In test [10] the target is Vascular endothelial growth factor receptor 3 (Homo sapiens, UniProt P35916). The format is functional.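 Note: value from a kinome-wide profiling panel, with FLT4 as the panel member.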
Chain of Vascular endothelial growth factor receptor 3 (P35916 whole entry): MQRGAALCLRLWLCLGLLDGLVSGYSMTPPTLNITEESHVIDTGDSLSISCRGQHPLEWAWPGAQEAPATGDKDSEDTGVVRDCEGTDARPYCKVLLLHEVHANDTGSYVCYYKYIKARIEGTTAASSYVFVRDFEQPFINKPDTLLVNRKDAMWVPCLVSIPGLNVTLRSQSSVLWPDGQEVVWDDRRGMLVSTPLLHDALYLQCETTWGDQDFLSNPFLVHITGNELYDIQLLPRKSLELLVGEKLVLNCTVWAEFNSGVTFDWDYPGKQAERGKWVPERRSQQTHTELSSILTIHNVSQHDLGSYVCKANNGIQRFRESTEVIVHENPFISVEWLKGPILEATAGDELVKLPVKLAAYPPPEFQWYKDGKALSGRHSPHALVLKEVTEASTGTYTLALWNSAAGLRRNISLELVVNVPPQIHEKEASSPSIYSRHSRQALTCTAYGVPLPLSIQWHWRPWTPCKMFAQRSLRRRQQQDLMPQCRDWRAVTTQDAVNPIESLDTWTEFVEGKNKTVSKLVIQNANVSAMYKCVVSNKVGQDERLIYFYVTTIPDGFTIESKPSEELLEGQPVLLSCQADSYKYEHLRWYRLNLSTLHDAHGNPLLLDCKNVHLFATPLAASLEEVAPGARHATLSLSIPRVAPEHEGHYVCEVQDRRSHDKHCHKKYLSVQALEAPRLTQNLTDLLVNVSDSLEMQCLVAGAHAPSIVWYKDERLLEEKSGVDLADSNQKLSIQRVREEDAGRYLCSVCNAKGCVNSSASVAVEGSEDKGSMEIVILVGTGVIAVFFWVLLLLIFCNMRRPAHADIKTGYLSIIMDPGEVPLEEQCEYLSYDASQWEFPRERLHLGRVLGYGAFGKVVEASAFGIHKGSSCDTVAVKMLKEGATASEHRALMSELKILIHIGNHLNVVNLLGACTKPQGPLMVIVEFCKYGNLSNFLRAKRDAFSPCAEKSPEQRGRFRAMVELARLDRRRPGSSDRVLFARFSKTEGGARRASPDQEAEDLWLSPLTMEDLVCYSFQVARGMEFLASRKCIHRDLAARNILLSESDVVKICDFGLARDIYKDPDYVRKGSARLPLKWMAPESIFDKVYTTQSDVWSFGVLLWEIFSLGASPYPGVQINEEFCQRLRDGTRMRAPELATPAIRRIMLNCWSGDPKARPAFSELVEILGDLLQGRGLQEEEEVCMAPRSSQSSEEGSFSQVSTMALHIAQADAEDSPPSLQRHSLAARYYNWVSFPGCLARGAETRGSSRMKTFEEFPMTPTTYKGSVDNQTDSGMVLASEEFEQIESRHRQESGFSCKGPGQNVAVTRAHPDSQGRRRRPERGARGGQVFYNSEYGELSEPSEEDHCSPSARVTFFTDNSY
The target in test [11] is Tyrosine-protein kinase ABL1 (Homo sapiens, UniProt P00519). The format is functional.
Test [12] concerns the target Mast/stem cell growth factor receptor Kit (Homo sapiens, UniProt P10721). The format is functional.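 Note: KIT entry within a kinase panel assay.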
Test [13] concerns the target Serine/threonine-protein kinase Nek2 (Homo sapiens, UniProt P51955). The format is functional.
Test [14] addresses Serine/threonine-protein kinase Chk1 (Homo sapiens, UniProt O14757). The format is functional.

Chain of Serine/threonine-protein kinase Nek2 (P51955 whole entry): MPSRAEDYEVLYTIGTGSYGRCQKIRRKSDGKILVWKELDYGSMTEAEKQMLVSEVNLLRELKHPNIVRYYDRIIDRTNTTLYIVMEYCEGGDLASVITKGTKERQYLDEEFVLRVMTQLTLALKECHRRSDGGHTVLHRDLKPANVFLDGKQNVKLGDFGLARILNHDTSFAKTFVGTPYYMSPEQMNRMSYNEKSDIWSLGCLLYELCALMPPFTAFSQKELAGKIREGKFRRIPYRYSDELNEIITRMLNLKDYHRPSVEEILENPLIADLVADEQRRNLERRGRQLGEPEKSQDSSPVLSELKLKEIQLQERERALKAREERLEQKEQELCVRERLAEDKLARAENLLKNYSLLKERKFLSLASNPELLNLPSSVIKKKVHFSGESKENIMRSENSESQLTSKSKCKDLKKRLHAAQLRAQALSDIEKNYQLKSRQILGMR
Chain of SUMO-activating enzyme (Q9UBE0 whole entry): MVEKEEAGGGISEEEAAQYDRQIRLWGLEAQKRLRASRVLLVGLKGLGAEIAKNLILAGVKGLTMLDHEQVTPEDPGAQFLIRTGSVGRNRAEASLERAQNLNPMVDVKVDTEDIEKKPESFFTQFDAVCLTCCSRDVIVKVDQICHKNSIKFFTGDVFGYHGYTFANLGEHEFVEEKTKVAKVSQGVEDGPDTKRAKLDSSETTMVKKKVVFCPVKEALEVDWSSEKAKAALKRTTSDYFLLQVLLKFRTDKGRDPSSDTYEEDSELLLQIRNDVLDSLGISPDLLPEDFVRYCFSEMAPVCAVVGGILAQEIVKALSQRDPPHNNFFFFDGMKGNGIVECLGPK
Chain of SUMO-activating enzyme (Q9UBT2 whole entry): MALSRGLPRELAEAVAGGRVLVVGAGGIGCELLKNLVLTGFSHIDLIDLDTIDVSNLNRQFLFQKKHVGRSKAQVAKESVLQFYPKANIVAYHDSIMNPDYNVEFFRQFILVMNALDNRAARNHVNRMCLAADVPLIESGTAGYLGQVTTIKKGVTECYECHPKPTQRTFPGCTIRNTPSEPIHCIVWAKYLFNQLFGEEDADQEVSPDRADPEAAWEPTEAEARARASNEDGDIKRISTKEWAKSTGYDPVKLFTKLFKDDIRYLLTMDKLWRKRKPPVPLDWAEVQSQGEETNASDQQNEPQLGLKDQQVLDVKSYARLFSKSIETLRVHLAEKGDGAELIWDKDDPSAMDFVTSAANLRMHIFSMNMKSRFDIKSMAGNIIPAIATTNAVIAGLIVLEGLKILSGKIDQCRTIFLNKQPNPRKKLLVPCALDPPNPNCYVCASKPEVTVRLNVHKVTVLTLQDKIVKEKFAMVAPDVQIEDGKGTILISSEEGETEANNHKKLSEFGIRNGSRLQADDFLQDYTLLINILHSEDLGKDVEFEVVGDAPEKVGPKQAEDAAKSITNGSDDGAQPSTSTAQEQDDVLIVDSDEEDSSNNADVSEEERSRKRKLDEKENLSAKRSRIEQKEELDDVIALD
Chain of Serine/threonine-protein phosphatase (Q9BPW0 whole entry): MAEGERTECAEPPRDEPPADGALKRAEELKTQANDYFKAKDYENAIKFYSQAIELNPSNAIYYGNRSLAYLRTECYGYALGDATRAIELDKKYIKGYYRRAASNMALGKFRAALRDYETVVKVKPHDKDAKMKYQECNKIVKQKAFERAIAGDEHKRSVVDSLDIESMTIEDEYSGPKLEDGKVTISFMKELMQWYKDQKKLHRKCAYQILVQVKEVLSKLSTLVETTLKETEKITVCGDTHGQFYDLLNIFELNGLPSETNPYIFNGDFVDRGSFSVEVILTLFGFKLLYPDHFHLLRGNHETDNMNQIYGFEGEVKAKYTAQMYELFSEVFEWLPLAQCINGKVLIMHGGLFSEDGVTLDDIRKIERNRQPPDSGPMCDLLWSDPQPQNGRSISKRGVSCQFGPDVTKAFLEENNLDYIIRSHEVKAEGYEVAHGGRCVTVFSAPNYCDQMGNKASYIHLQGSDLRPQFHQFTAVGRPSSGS
Chain of Mast/stem cell growth factor receptor Kit (P10721 whole entry): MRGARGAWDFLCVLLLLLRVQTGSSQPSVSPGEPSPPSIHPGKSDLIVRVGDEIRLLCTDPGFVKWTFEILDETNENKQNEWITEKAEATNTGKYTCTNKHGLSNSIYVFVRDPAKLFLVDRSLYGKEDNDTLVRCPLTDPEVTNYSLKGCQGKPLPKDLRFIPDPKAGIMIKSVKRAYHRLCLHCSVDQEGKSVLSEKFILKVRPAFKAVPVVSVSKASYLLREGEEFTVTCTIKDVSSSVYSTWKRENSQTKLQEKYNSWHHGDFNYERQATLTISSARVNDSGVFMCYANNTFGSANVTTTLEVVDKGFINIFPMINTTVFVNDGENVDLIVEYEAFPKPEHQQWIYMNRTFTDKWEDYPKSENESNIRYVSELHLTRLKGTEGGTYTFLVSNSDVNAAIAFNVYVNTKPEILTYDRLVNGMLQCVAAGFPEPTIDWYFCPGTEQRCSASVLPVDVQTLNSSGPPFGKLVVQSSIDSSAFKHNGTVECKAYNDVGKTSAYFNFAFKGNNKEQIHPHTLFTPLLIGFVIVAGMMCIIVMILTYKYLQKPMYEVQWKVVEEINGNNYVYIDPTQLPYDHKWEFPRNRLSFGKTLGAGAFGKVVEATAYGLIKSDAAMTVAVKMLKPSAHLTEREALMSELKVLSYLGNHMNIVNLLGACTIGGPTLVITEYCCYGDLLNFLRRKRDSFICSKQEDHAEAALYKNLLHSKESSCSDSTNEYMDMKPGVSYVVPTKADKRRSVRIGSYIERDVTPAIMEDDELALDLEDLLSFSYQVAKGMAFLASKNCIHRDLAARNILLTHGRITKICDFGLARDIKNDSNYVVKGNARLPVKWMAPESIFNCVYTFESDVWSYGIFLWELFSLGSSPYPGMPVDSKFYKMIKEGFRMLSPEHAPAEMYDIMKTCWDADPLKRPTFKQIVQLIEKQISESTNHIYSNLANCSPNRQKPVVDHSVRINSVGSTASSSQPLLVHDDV

Take `Cc1ccc(C(=O)NC2(O)C(=O)c3ccccc3C2=O)cc1C`: the IC50 was > 828 nM (active) in test [1] and 5.71 µM (active) at SUMO-activating enzyme.

Turning to `O=[N+]([O-])c1c(Nc2ccccn2)cc(Cl)c2nonc12`, the AC50 on Caspase-3 is 7.84 µM (active). In [2], the EC50 is 3.55 µM (active).

For the molecule `CC[C@@H](C)[C@H](CNC)NC[C@@H](Cc1cccc2ccccc12)NCCc1cccc(C(F)(F)F)c1`, the figures for the EC50 (at Insulin-degrading enzyme; in test [3]) were 6.41 µM (active) and > 38 µM (not active), respectively.

As for `CC(C)(CO)CNc1nccc(-c2c(-c3ccc(F)cc3)nc3c(CC4CC4)nccn23)n1`, the Ki in test [4] was > 5.01 µM (inactive); in test [5], > 1.26 µM (inactive); in test [6], > 7.94 µM (inactive); in test [7] it was > 7.94 µM (inactive); in [8] it was > 2 µM (inactive); in test [9] it was > 7.94 µM (inactive). The Ki in test [10] is > 6.31 µM (inactive); in test [11], > 631 nM (inactive); in test [12], > 1.26 µM (inactive); in test [13], > 10 µM (inactive); in [14] it was > 7.94 µM (inactive).

These data come from ChEMBL document CHEMBL1201862, “PubChem BioAssay data set” (2004).
